Tests used:
Format in all cases: physicochemical
[1] = Influence of heating time on decomposition (FDCA in water at 130° C.); settings: for appearance of solution on heating (decomposition): deionised water
Protocol: In a reaction vessel, 60 mg of FDCA was dissolved over time in 3 ml of deionised water at a temperature of 130° C. On heating, around 5 minutes was needed to allow the solid to dissolve. Following this, samples were taken at 12, 15, 18 and 21 minutes. The samples were photographed at these intervals (FIG. 4).

[2] = Solubility of FDCA in water at different temperatures; settings: water as solvent, temperatures beyond 130° C.
From the text: The inventors realized that it is desirable for FDCA crystallization to use superheating for dissolving FDCA. FDCA may show a significant increase in solubility above superheating conditions. […] The byproduct is colored and its formation is therefore undesirable both in view of purity and color.

[3] = Influence of heating time on color of the precipitate after cooling; settings: 200 mg FDCA in 2 mL H2O, 140-180° C., 5-15 min, prolonged heating
Protocol: In another experiment, the influence of heating time on the color of the precipitate after cooling was investigated. A total of nine samples were prepared by mixing 200 mg of FDCA in 2 mL H2O. [table]

For `O=C(O)c1ccc(C(=O)O)o1` [FDCA, 2,5-furandicarboxylic acid], the “time needed to allow the solid to dissolve” value ([1]; 60 mg FDCA in 3 ml deionised water) was “around 5 minutes”, the “appearance of solution on heating (decomposition)” value (shortened to “appearance of solution on heating”) ([1]; after 12 minutes) was “a light solution is observed” and the “appearance of solution on heating” value ([1]; after 15 minutes) was “some black solid by-products started to form”. For the same molecule, the “appearance of solution on heating” value ([1]; after 18 minutes) was “clearly darker brown in color”, the “solubility of FDCA” value [2] was “increases dramatically” and the “by-product formation after heating and cooling” value [3] was “formation of black solid by-products”.

Reference: patent US11104656B2, “Method for purifying and removing color of FDCA” (Nederlandse Organisatie voor …, priority 2017, dated 2021)
